Measured values reported in PMC2810339, “Allosteric Regulation of HIV-1 Reverse Transcriptase by ATP for Nucleotide Selection” (PLoS ONE, 2010).

Assays:
Type in all cases: biochemical, HIV-1
[1] = system: multi-NRTI-resistant RT (ERT-mt6), purified p51/p66 heterodimer; experiment: RNA-dependent DNA polymerase activity, dTTP incorporation into poly (rA)·p(dT)12-18, steady-state kinetics; conditions: for fold increase in IC50 of AZTTP compared to AZTTP without the compound: in the presence of 5 mM of the indicated compound; for fold increase in Ki^NRTI value compared to without ATP: at 3 mM of ATP
Procedure: (§1) RNA-dependent DNA polymerase activity was measured using [α-^32P]dTTP and poly(rA)/poly(dT)12-18 as described previously. […] These experiments were performed in duplicate and repeated two to six times.
(§2) The averages of the experimental data were fit by a nonlinear regression method using the program Igor Pro (WaveMetrics, USA). The kinetics parameters were determined by the Michaelis-Menten equation: [drawing 1] (1) where [S] is the substrate concentration; Km^app is the apparent Michaelis-Menten constant; and Vmax^app is the apparent maximal rate attained when the enzyme active sites are saturated by substrate.
(§3) Using this model, the enzyme kinetic parameters were calculated using Equations 2–5.
(§4) Vmax^app and Km^app are defined as [drawing 2] (2) and [drawing 3] (3) respectively, where Km is the Michaelis-Menten constant; [E] is the enzyme concentration; [I] is the inhibitor concentration; Ki and Ki′ are the inhibition constants for the enzyme and the complex of the enzyme with substrate; and kcat^app is the apparent turnover number: [drawing 4] (4) where kcat is the turnover number.
(§5) The kcat^app and Km^app that can be derived from the model (Figure 2C) are [drawing 5] (5) and [drawing 6] (6) where Ki^ATP is the dissociation constant of ATP; Ki^AZTTP is the dissociation constant of AZTTP; [I^ATP] is the ATP concentration; and [I^AZTTP] is the AZTTP concentration.

[2] = system: NRTI-sensitive RT (93JP-NH1), purified p51/p66 heterodimer; experiment: as above; conditions: for fold increase in Ki^NRTI value compared to without ATP: at 3 mM of ATP
Procedure: as §1, §2, §3, §4, §5

[3] = system: D113A/N mutants of ERT-mt6 RT; experiment: RNA-dependent DNA polymerase activity of site-directed RT mutants from ERT-mt6; conditions: D113A/N versus ERT-mt6 RT; 5 mM ATP (Figure S4C)
Procedure: The purified RTs were dissolved in the RT stock buffer (50 mM Tris-HCl pH 7.5, 75 mM KCl, 5 mM MgCl2, 2 mM DTT, 0.05% NP40, and 50% glycerol)[32], [33] and kept at −30°C until use. RNA-dependent DNA polymerase activity was measured using [α-^32P]dTTP and poly(rA)/poly(dT)12-18 as described previously. For the RT reaction in the presence of ATP, RT activities were measured in 100 µl of RT reaction cocktail consisting of 50 mM Tris-HCl pH 7.5, 75 mM KCl, 5 mM MgCl2, 2 mM DTT, 0.05% NP40, and 50% glycerol containing RT (1–10 nM), dTTP (0.2–18 µM), and ATP (0–4 mM). For the RT reaction in the presence of ATP and NRTI, RT activities were measured in 100 µl of the RT reaction cocktail containing RT (1–10 nM), dTTP (0.2–18 µM), ATP (0–5 mM), and AZTTP or d4TTP (0–1 µM). These experiments were performed in duplicate and repeated two to six times. […]
Supplementary file pone.0008867.s004.tif: Figure S4 Data on RT mutants from the ERT-mt6 RT. […] RNA-dependent DNA polymerase activity of the purified RTs (20 nM) was measured using a [α-^32P]dTTP and poly (rA)⋅p(dT)12-18 system. […] RNA-dependent DNA polymerase activity of the purified mutant RTs was measured using various concentrations of [α-^32P]dTTP and poly (rA)⋅p(dT)12-18 in the presence of ATP. […]

[4] = 0-4 mM ATP, Lineweaver-Burk double-reciprocal plots
[5] = ATP binding to RT-template-primer complex (RT complex 1)
[6] = ATP binding to RT-template-primer-dTTP complex (RT complex 2)
[7] = dTTP incorporation, absence of ATP

For Nc1ncnc2c1ncn2[C@@H]1O[C@H](COP(=O)(O)OP(=O)(O)NP(=O)(O)O)[C@@H](O)[C@H]1O [AMP-PNP, Adenosine 5′-(β, γ-imido) triphosphate], the “fold increase in IC50 of AZTTP compared to AZTTP without the compound” value (“fold increase … to AZTTP without the compound” for short) [1] was “approximately 150 fold”.
Nc1ncnc2c1ncn2[C@@H]1O[C@H](COP(=O)(O)OP(=O)(O)OP(=O)(O)O)[C@@H](O)[C@H]1O [ATP] was tested, and the “mode of inhibition of dTTP incorporation” value [2, 4] was “mixed noncompetitive inhibition”, the Ki [2, 5] was 2900 ± 1300 µM and the “Ki′^ATP” value [2, 6] was 1200 ± 500 µM. For the same molecule, the “mode of inhibition of dTTP incorporation” value [1, 4] was “mixed noncompetitive inhibition”, the Ki [1, 5] was 2800 ± 1300 µM and the “Ki′^ATP” value [1, 6] was 1100 ± 400 µM. The “fold increase … to AZTTP without the compound” value [1] was “approximately 350 fold”.
With Cc1cn([C@H]2C[C@H](N=[N+]=[N-])[C@@H](COP(=O)(O)OP(=O)(O)OP(=O)(O)O)O2)c(=O)[nH]c1=O [AZTTP, 3′-Azido 3′-deoxythymidine 5′-triphosphate] the “fold increase in Ki^NRTI value compared to without ATP” value (“fold increase … to without ATP” for short) [2] was “about 6.8 fold”, the “fold increase … to without ATP” value [1] was “about 30 fold” and the “fold reduction in the IC50 of AZTTP” value [3] was 4- to 5 fold.
For Cc1cn([C@H]2C=C[C@@H](COP(=O)(O)OP(=O)(O)OP(=O)(O)O)O2)c(=O)[nH]c1=O [d4TTP, 3′-deoxy-2′, and 3′-didehydrothymidine 5′-triphosphate], the “fold increase … to without ATP” value [2] was ~0.6 fold and the “fold increase … to without ATP” value [1] was ~8.5 fold.
Work on Cc1cn([C@H]2C[C@H](O)[C@@H](COP(=O)(O)OP(=O)(O)OP(=O)(O)O)O2)c(=O)[nH]c1=O [dTTP] yielded a kcat [2, 7] of 1.04 ± 0.01 s⁻¹, a Km ([2]; substrate dTTP, absence of ATP) of 4 ± 0.1 µM and a kcat [1, 7] of 0.49 ± 0.01 s⁻¹. It also gave a Km ([1]; substrate dTTP, absence of ATP) of 13.8 ± 0.5 µM.
NaPO4 was tested, and the “fold increase … to AZTTP without the compound” value ([2]; in the presence of 5 mM of the indicated compound) was “little effect” and the “fold increase … to AZTTP without the compound” value [1] was “little effect”.
